Experimental data: US20210024499A1, “OXIDIZED BIS(3-INDOLYL)METHANES AND USES THEREOF” (Sanford Burnam Prebys Medical Discovery Institute, priority 2018, published 2021)

Assays:
[1] = tested on: MDA-MB-231 cells; assay: PARP cleavage assay (Western blotting), MDA-MB-231; format: cell-based; conditions: 1 μM, 6 hours
Excerpt: Compound 1a had no effect under the same conditions (FIG. 1A). […] Compound 1a, 28a, 47a, 48a, 73a, 39a, 70a, 103a, 89a and 88a had no effect under the same conditions (FIG. 3B-C).

[2] = tested on: mTOR markers p-S6 and p-4EBP1; assay: mTOR inhibition: expression of mTOR markers; format: cell-based; conditions: MDA-MB-231 cells, 1 μM, 6 hours

SMILES | PARP cleavage [1] | expression levels of mTOR markers p-S6 and p-4EBP1 [2]
Fc1ccc2[nH]cc([C+](c3ccc(C(F)(F)F)cc3)c3c[nH]c4ccc(F)cc34)c2c1 [Compound 10, Bis(5-fluoro-1H-indol-3-yl)(4-(trifluoromethyl)phenyl)methylium methanesulfonate] | effectively induce PARP cleavage | reduced the expression levels
Cn1cc([C+](c2ccc(C(F)(F)F)cc2)c2cn(C)c3ccccc23)c2ccccc21 [Compound 11, Bis(1-methyl-1H-indol-3-yl)(4-(trifluoromethyl)phenyl)methylium methanesulfonate] | effectively induce PARP cleavage | reduced the expression levels
Cc1ccc2[nH]cc([C+](c3ccc(C(F)(F)F)cc3)c3c[nH]c4ccc(C)cc34)c2c1 [Compound 15, Bis(5-methyl-1H-indol-3-yl)(4-(trifluoromethyl)phenyl)methylium methanesulfonate] | effectively induce PARP cleavage | reduced the expression levels
Cc1ccc2c([C+](c3ccc(C(F)(F)F)cc3)c3c[nH]c4cc(C)ccc34)c[nH]c2c1 [Compound 18, Bis(6-methyl-1H-indol-3-yl)(4-(trifluoromethyl)phenyl)methylium chloride] | effectively induce PARP cleavage | reduced the expression levels
Fc1ccc2c([C+](c3ccc(C(F)(F)F)cc3)c3c[nH]c4cc(F)ccc34)c[nH]c2c1 [Compound 21, Bis(6-fluoro-1H-indol-3-yl)(4-(trifluoromethyl)phenyl)methylium methanesulfonate] | effectively induce PARP cleavage | reduced the expression levels
Cl.Fc1ccc2c([C+](c3ccc(C(F)(F)F)cc3)c3c[nH]c4cc(F)ccc34)c[nH]c2c1 [Compound 22, Bis(6-fluoro-1H-indol-3-yl)(4-(trifluoromethyl)phenyl)methylium chloride] | effectively induce PARP cleavage | reduced the expression levels
FC(F)(F)c1ccc([C+](c2c[nH]c3cc(Cl)ccc23)c2c[nH]c3cc(Cl)ccc23)cc1 [Compound 24, Bis(6-chloro-1H-indol-3-yl)(4-(trifluoromethyl)phenyl)methylium methanesulfonate] | effectively induce PARP cleavage | reduced the expression levels
Fc1cccc2[nH]cc([C+](c3ccc(C(F)(F)F)cc3)c3c[nH]c4cccc(F)c34)c12.[Cl-] [Compound 43, Bis(4-fluoro-1H-indol-3-yl)(4-(trifluoromethyl)phenyl)methylium chloride] | effectively induce PARP cleavage | reduced the expression levels
Oc1ccc2[nH]cc([C+](c3ccc(C(F)(F)F)cc3)c3c[nH]c4ccc(O)cc34)c2c1.[Cl-] [Compound 46, Bis(5-hydroxy-1H-indol-3-yl)(4-(trifluoromethyl)phenyl)methylium chloride] | effectively induce PARP cleavage | reduced the expression levels
CCCCn1cc([C+](c2ccc(C(F)(F)F)cc2)c2c[nH]c3ccccc23)c2ccccc21.[Cl-] [Compound 49, (1-Butyl-1H-indol-3-yl)(1H-indol-3-yl)(4-(trifluoromethyl)phenyl)methylium chloride] | effectively induce PARP cleavage | reduced the expression levels
Cc1ccc2c([C+](c3ccc(C(F)(F)F)cc3)c3c[nH]c4ccccc34)c[nH]c2c1.[Cl-] [Compound 54, (6-Methyl-1H-indol-3-yl)(1H-indol-3-yl)(4-(trifluoromethyl)phenyl)methylium chloride] | effectively induce PARP cleavage | reduced the expression levels
